Laboratory results reported in US8258311B2, “Human protein tyrosine phosphatase inhibitors and methods of use” (Aerpio Therapeutics Inc., priority 2006, dated 2012).

How the values were obtained:
[1] = biological target: T1, PTP1B (Homo sapiens, UniProt P18031); assay: PTP1B inhibition (IC50); type: biochemical
T1 sequence (P18031 1-435): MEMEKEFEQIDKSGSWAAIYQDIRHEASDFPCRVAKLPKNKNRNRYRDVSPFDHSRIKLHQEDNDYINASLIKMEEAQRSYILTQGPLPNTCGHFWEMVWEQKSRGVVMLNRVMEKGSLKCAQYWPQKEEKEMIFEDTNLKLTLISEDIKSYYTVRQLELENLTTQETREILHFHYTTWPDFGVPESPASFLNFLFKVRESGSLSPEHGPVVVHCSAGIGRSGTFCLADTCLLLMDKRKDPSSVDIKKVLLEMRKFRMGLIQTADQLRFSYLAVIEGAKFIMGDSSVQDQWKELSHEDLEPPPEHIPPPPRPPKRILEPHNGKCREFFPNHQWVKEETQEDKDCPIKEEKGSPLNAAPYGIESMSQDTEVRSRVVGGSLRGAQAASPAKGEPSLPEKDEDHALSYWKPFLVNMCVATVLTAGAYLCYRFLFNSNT

[2] = biological target: HPTPβ (Homo sapiens, UniProt P23467); assay: HPTPβ inhibition (IC50); type: biochemical
HPTPβ, sequence (P23467 23-1997): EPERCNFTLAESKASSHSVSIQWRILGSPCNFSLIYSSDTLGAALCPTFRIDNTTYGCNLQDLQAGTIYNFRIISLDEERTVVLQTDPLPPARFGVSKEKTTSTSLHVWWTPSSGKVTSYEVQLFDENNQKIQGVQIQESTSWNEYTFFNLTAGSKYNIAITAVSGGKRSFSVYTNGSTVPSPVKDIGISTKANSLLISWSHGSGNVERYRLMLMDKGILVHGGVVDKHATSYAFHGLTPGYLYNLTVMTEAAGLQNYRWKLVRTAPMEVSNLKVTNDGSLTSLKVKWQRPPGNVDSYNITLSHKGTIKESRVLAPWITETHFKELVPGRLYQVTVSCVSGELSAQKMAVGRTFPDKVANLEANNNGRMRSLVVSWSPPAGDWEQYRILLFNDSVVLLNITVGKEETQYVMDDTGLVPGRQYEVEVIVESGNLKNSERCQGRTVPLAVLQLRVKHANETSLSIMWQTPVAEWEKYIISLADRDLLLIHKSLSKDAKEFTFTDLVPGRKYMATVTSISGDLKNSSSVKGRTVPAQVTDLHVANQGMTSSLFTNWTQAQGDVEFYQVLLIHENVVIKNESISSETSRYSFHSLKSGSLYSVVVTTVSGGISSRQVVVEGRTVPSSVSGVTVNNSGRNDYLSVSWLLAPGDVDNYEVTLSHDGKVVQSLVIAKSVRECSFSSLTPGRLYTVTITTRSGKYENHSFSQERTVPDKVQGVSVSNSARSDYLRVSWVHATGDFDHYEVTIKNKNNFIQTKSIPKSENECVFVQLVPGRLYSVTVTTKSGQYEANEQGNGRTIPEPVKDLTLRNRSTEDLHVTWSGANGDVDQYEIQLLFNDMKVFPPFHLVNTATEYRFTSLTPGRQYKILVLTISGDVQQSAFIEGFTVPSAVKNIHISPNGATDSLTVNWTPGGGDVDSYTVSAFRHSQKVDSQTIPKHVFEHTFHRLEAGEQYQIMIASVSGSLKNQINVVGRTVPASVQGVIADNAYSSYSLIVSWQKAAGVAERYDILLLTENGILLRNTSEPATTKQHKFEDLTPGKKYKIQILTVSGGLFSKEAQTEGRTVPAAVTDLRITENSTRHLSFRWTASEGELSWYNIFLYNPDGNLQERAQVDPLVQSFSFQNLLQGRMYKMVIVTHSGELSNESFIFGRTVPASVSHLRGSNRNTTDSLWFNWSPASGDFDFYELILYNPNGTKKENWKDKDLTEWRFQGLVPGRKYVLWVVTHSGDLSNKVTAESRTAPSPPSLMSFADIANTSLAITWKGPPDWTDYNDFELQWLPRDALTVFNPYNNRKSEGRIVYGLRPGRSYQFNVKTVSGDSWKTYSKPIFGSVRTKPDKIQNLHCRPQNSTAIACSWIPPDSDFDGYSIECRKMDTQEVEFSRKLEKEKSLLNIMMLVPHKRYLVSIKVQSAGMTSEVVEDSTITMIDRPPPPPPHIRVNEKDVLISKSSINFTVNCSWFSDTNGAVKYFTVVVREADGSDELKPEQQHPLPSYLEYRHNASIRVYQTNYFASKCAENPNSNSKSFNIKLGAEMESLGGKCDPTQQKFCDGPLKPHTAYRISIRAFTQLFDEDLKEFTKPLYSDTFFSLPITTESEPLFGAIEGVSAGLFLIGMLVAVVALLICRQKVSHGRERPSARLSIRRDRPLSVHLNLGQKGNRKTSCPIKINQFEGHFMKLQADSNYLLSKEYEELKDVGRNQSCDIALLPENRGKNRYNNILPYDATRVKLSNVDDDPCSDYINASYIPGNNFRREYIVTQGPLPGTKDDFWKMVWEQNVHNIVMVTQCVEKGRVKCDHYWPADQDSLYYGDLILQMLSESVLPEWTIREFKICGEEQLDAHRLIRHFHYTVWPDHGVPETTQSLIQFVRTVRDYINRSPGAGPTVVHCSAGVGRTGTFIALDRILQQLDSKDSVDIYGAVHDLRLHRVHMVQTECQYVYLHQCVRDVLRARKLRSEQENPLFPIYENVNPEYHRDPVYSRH

| Compound | IC50 [1] [nM] | IC50 [2] [nM] |
| --- | --- | --- |
| COC(=O)N[C@@H](Cc1ccccc1)C(=O)N[C@@H](Cc1ccc(NS(=O)(=O)O)cc1)c1csc(-c2ccccc2)n1 [4-{(S)-2-[(S)-2-(Methoxycarbonylamino)-3-phenylpropionamido]-2-(2-phenylthiazole-4-yl)ethyl}phenylsulfamic acid] | 508 | – |
| CC(C)(C)OC(=O)N[C@@H](Cc1ccccc1)C(=O)N[C@@H](Cc1ccc(NS(=O)(=O)O)cc1)c1csc(-c2ccccc2)n1 [4-{(S)-2-(S)-2-(tert-Butoxycarbonylamino)-3-phenylpropanamido-2-(2-phenylthiazol-4-yl)}phenylsulfamic acid] | 905 | – |
| COC(=O)N[C@@H](Cc1ccccc1)C(=O)N[C@@H](Cc1ccc(NS(=O)(=O)O)cc1)c1nc(C2CC2)cs1 [4-{(S)-2-(4-Cyclopropylthiazol-2-yl)-2-[(S)-2-(methoxy-carbonylamino)-3-phenylpropanamido]ethyl}phenylsulfamic acid] | 300 | 0.01 |
| COC(=O)N[C@@H](Cc1ccccc1)C(=O)N[C@@H](Cc1ccc(NS(=O)(=O)O)cc1)c1nc(C)c(C)s1 [4-{(S)-2-(4,5-Dimethylthiazol-2-yl)-2-[(S)-2-(methoxycarbonylamino)-3-phenyl-propanamido]ethyl}phenylsulfamic acid] | 310 | 1 |
| CC(C)(C)OC(=O)N[C@@H](Cc1ccc(NS(=O)(=O)O)cc1)c1nc(-c2ccsc2)cs1 [4-((S)-2-(tert-Butoxycarbonylamino)-2-(4-(thiophen-3-yl)thiazol-2-yl)ethyl)phenyl sulfamic acid] | 14600 | 45 |
| CCc1csc([C@H](Cc2ccc(NS(=O)(=O)O)cc2)NC(=O)[C@H](Cc2ccccc2)NC(C)=O)n1 [4-[(S)-2-((S)-2-Acetamido-3-phenylpropanamido)-2-(4-ethylthiazol-2-yl)ethyl]phenylsulfamic acid] | 1970 | 1 |
| CC(C)(C)C(=O)N[C@@H](Cc1ccc(NS(=O)(=O)O)cc1)c1nc(-c2ccc(-c3ccccc3)cc2)cs1 [(S)-4-(2-(4-(Biphen-4-yl)thiazol-2-yl)-2-pivalamidoethyl)phenylsulfamic acid] | 28600 | 381 |
| CCc1csc([C@H](Cc2ccc(NS(=O)(=O)O)cc2)NC(=O)[C@H](Cc2ccccc2)NC(=O)OC)n1 [4-{(S)-2-(4-Ethylthiazol-2-yl)-2-[(S)-2-(methoxycarbonylamino)-3-phenylpropanamido]ethyl}phenylsulfamic acid] | 490 | 0.162 |
| COc1cccc(Cc2csc([C@H](Cc3ccc(NS(=O)(=O)O)cc3)NC(=O)C(C)(C)C)n2)c1 [(S)-4-(2-(4-(3-Methoxybenzyl)thiazol-2-yl)-2-pivalamidoethyl)phenylsulfamic acid] | 50000 | 132 |
| CCOC(=O)c1csc([C@H](Cc2ccc(NS(=O)(=O)O)cc2)NC(=O)C(C)(C)C)n1 [(S)-4-{[2-(4-Ethoxycarbonyl)thiazol-2-yl]-2-pivalamidoethyl}phenylsulfamic acid] | 44900 | 584 |
| (S)-4-(2-(tert-Butoxycarbonyl)-2-(4-(2-(2-methoxy-2-oxoyethyl amino)-2-oxoethyl)thiazole-2-yl)ethyl)phenylsulfamic acid | 50000 | 132 |
| CC(=O)N[C@@H](Cc1ccccc1)C(=O)N[C@@H](Cc1ccc(NS(=O)(=O)O)cc1)c1nc(C(C)(C)C)cs1 [4-[(S)-2-((S)-2-Acetamido-3-phenylpropanamido)-2-(4-tert-butylthiazol-2-yl)ethyl]phenylsulfamic acid] | 1520 | 0.3 |
| COC(=O)N[C@@H](Cc1ccccc1)C(=O)N[C@@H](Cc1ccc(NS(=O)(=O)O)cc1)c1csc(C)n1 [4-{(S)-2-[(S)-2-(Methoxycarbonylamino)-3-phenylpropanamido]-2-(2-methylthiazol-4-yl)ethyl}phenylsulfamic acid] | 1160 | 1 |
| COC(=O)N[C@@H](Cc1ccccc1)C(=O)N[C@@H](Cc1ccc(NS(=O)(=O)O)cc1)c1nc(CCC(F)(F)F)cs1 [4-{(S)-2-[(S)-2-(Methoxycarbonylamino)-3-phenylpropanamido)-2-[4-(3,3,3-trifluoropropyl)thiazol-2-yl]ethyl}phenylsulfamic acid] | 120 | 0.08 |
| CC(C)(C)OC(=O)N[C@@H](Cc1ccc(NS(=O)(=O)O)cc1)c1nc(-c2cccc(C(F)(F)F)c2)cs1 [4-((S)-2-(tert-Butoxycarbonylamino)-2-(4-(3-(trifluoromethyl)phenyl)thiazol-2-yl)ethyl)-phenyl sulfamic acid] | 11800 | 253 |
| 4-((S)-2-(4-Ethylthiazol-2-yl)-2-{(S)-2-[2-(methoxycarbonylamino)-acetamido]-3-phenylpropanamido}ethyl)phenylsulfamic acid | 299 | – |

| Compound | IC50 [1] [nM] | IC50 [2] [nM] |
| --- | --- | --- |
| CCc1csc([C@H](Cc2ccc(NS(=O)(=O)O)cc2)NC(=O)CNC(=O)OC)n1 [(S)-4-{2-(4-Ethylthiazol-2-yl)-2-[2-(methoxycarbonylamino)acetamido]ethyl}phenylsulfamic acid] | 5260 | 20 |
| CCc1csc([C@H](Cc2ccc(NS(=O)(=O)O)cc2)NC(=O)[C@@H](NC(=O)OC)C(C)C)n1 [4-{(S)-2-(4-Ethylthiazol-2-yl)-2-[(S)-2-(methoxycarbonylamino)-3-methylbutanamido]-ethyl}phenylsulfamic acid] | 1030 | 3 |
| CC(C)(C)OC(=O)N[C@@H](Cc1ccc(NS(=O)(=O)O)cc1)c1nc(C(C)(C)C)cs1 [(S)-4-(2-(tert-Butoxycarbonylamino)-2-(4-tert-butylthiazol-2-yl)ethyl)phenyl sulfamic acid] | 50000 | 27 |
| COC(=O)N[C@@H](Cc1ccccc1)C(=O)N[C@@H](Cc1ccc(NS(=O)(=O)O)cc1)c1nc(C2CCCCC2)cs1 [4-{(S)-2-(4-Cyclohexylthiazol-2-yl)-2-[(S)-2-(methoxycarbonylamino)-3-phenyl-propanamido]ethyl}phenylsulfamic acid] | 1780 | – |
| CC(C)(C)C(=O)N[C@@H](Cc1ccc(NS(=O)(=O)O)cc1)c1nc(Cc2ccccc2)cs1 [(S)-4-(2-(4-Benzylthiazol-2-yl)-2-pivalamidoethyl)phenylsulfamic acid] | 38200 | 113 |
| Cc1csc([C@H](Cc2ccc(NS(=O)(=O)O)cc2)NC(=O)C(C)(C)C)n1 [(S)-4-(2-(4-Methylthiazol-2-yl)-2-pivalamidoethyl)phenyl-sulfamic acid] | 50000 | – |
| Cc1nc([C@H](Cc2ccc(NS(=O)(=O)O)cc2)NC(=O)OC(C)(C)C)cs1 | 18900 | 33 |
| COC(=O)N[C@@H](Cc1ccccc1)C(=O)N[C@@H](Cc1ccc(NS(=O)(=O)O)cc1)c1nc2c(s1)CCCC2 [4-{(S)-2-[(S)-2-(Methoxycarbonylamino)-3-phenylpropanamido]-2-(4,5,6,7-tetrahydrobenzo[d]thiazol-2-yl)ethyl}phenylsulfamic acid] | 89 | 0.4 |
| COC(=O)N[C@@H](Cc1ccccc1)C(=O)N[C@@H](Cc1ccc(NS(=O)(=O)O)cc1)c1nc(-c2cccs2)cs1 [4-{(S)-2-[(S)-2-(Methoxycarbonylamino)-3-phenylpropanamido]-2-[4-(thiophen-2-yl)thiazol-2-yl]ethyl}phenylsulfamic acid] | 990 | – |
| COC(=O)N[C@@H](Cc1ccccc1)C(=O)N[C@@H](Cc1ccc(NS(=O)(=O)O)cc1)c1csc(-c2cccs2)n1 [4-{(S)-2-[(S)-2-(Methoxycarbonylamino)-3-phenylpropanamido]-2-[2-(thiophen-2-yl)thiazol-4-yl]ethyl}phenylsulfamic acid] | 604 | – |
| COC(=O)N[C@@H](Cc1ccccc1)C(=O)N[C@@H](Cc1ccc(NS(=O)(=O)O)cc1)c1csc(-c2sccc2Cl)n1 [4-{(S)-2-[2-(3-Chlorothiophen-2-yl)thiazol-4-yl]-2-[(S)-2-(methoxycarbonylamino)-3-phenylpropanamido]ethyl}phenylsulfamic acid] | 950 | – |
| COC(=O)N[C@@H](Cc1ccccc1)C(=O)N[C@@H](Cc1ccc(NS(=O)(=O)O)cc1)c1nc(-c2ccccc2)cs1 [4-{(S)-2-[(S)-2-(Methoxycarbonylamino)-3-phenylpropanamido]-2-(4-phenylthiazol-2-yl)ethyl}phenylsulfamic acid] | 597 | – |
| CCc1nc([C@H](Cc2ccc(NS(=O)(=O)O)cc2)NC(=O)[C@H](Cc2ccccc2)NC(=O)OC)sc1-c1ccccc1 [4-{(S)-2-(4-Ethyl-5-phenylthiazol-2-yl)-2-[(S)-2-(methoxy-carbonylamino)-3-phenyl-propanamido]ethyl}phenylsulfamic acid] | 390 | – |
| COC(=O)N[C@@H](Cc1ccccc1)C(=O)N[C@@H](Cc1ccc(NS(=O)(=O)O)cc1)c1nc(-c2ccc(Cl)s2)cs1 [4-{(S)-2-[4-(5-Chlorothiophen-2-yl)thiazol-2-yl]-2-[(S)-2-(methoxycarbonylamino)-3-phenylpropanamido]ethyl}phenyl-sulfamic acid] | 370 | – |
| COC(=O)N[C@@H](Cc1ccccc1)C(=O)N[C@@H](Cc1ccc(NS(=O)(=O)O)cc1)c1csc(-c2sccc2C)n1 [4-{(S)-2-[(S)-2-(Methoxycarbonylamino)-3-phenylpropanamido]-2-[2-(3-methylthiophen-2-yl)thiazol-4-yl]ethyl}phenylsulfamic acid] | 1090 | – |
| COC(=O)N[C@@H](Cc1ccccc1)C(=O)N[C@@H](Cc1ccc(NS(=O)(=O)O)cc1)c1csc(-c2ccco2)n1 | 5000 | – |
